# From patent US8420657B2 (Novartis AG, priority 2008, dated 2013)
# What was measured:
# [1] = tested on: JAK1/JAK2-dependent nuclear translocation of STAT1-GFP in HT1080 fibrosarcoma cells; assay: STAT1 nuclear translocation assay (Cellomics), IFN-γ stimulated HT1080 STAT1-GFP cells; type: cell-based; conditions: Homo sapiens, HT-1080, STAT1 translocation pathway
# In short: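 HT1080 cells stably expressing STAT1-GFP, pre-treated 30 min with compound (10 μM–0.003 μM, 0.1% DMSO), then stimulated 2 h with 100 ng/ml IFN-γ, fixed and Hoechst-stained. Nuclear-cytoplasmic GFP differential imaged over ≥1000 cells/well, normalised to unstimulated and DMSO-stimulated wells for IC50.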
# GST-JAK2(808-1132) = molecular target: T1, GST-JAK2(808-1132) (Homo sapiens, UniProt O60674); assay: JAK2 kinase assay (Caliper mobility shift, LabChip 3000); type: biochemical
# T1 construct: GST-JAK2(808-1132); purchased Invitrogen (Carlsbad, USA) #4288
# In short: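 Recombinant GST-JAK2(808-1132) kinase domain with FITC-labelled JAK3tide peptide substrate and ATP; 60 min at 30 °C, EDTA stop. Substrate/product ratio read by microfluidic mobility shift; compounds at 8 final concentrations, 10 to 0.003 μM.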
# T1 sequence (O60674 808-1132): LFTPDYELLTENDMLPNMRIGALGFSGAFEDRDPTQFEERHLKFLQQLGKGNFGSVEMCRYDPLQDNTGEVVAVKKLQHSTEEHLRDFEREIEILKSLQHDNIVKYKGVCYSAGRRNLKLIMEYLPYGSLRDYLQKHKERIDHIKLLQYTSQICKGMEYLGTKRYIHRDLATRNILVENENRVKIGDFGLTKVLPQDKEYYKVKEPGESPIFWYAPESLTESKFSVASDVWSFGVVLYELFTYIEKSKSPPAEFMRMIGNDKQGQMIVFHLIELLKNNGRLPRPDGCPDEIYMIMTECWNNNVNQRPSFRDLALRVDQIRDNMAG
IC50 [1],IC50 (GST-JAK2(808-1132)),SMILES
1180 nM,6.4 nM,"Cc1ccc(Nc2ncc3ccn(-c4ccc(C(=O)N5CCOCC5)cc4)c3n2)cc1F [Example 233, {4-[2-(3-Fluoro-4-methyl-phenylamino)-pyrrolo[2,3-d]pyrimidin-7-yl]-phenyl}-morpholin-4-yl-methanone]"
370 nM,5.4 nM,"Cn1cc(Nc2ncc3ccn(-c4cc(F)c(C(=O)N5CCOCC5)c(F)c4)c3n2)cn1 [Example 241, {2,6-Difluoro-4-[2-(1-methyl-1H-pyrazol-4-ylamino)-pyrrolo[2,3-d]pyrimidin-7-yl]-phenyl}-morpholin-4-yl-methanone]"
355 nM,4.3 nM,"Cc1cncc(Nc2ncc3ccn(-c4cc(F)c(C(=O)N5CCOCC5)c(F)c4)c3n2)c1 [Example 242, {2,6-Difluoro-4-[2-(5-methyl-pyridin-3-ylamino)-pyrrolo[2,3-d]pyrimidin-7-yl]-phenyl}-morpholin-4-yl-methanone]"
225 nM,< 3 nM,"CN1CCN(c2cc(Nc3ncc4ccn(-c5cc(F)c(C(=O)N6CCOCC6)c(F)c5)c4n3)ccn2)CC1 [Example 243, (2,6-Difluoro-4-{2-[2-(4-methyl-piperazin-1-yl)-pyridin-4-ylamino]-pyrrolo[2,3-d]pyrimidin-7-yl}-phenyl)-morpholin-4-yl-methanone]"
430 nM,< 3 nM,"CN1CCN(Cc2ccc(Nc3ncc4ccn(-c5ccc(S(C)(=O)=O)c(F)c5)c4n3)cc2)CC1 [Example 244, [7-(3-Fluoro-4-methanesulfonyl-phenyl)-7H-pyrrolo[2,3-d]pyrimidin-2-yl]-[4-(4-methyl-piperazin-1-ylmethyl)-phenyl]-amine]"
430 nM,< 3 nM,"CN1CCN(Cc2cccc(Nc3ncc4ccn(-c5cc(F)c(C(=O)N6CCOCC6)c(F)c5)c4n3)c2)CC1 [Example 245, (2,6-Difluoro-4-{2-[3-(4-methyl-piperazin-1-ylmethyl)-phenylamino]-pyrrolo[2,3-d]pyrimidin-7-yl}-phenyl)-morpholin-4-yl-methanone]"
255 nM,3.7 nM,"Cn1cc(Nc2ncc3ccn(-c4cc(F)c(CN5CCOCC5)c(F)c4)c3n2)cn1 [Example 247, [7-(3,5-Difluoro-4-morpholin-4-ylmethyl-phenyl)-7H-pyrrolo[2,3-d]pyrimidin-2-yl]-(1-methyl-1H-pyrazol-4-yl)-amine]"
4270 nM,24 nM,"O=C(c1cncc(Nc2ncc3ccn(-c4cc(F)c(CN5CCOCC5)c(F)c4)c3n2)c1)N1CCOCC1 [Example 248, {5-[7-(3,5-Difluoro-4-morpholin-4-ylmethyl-phenyl)-7H-pyrrolo[2,3-d]pyrimidin-2-ylamino]-pyridin-3-yl}-morpholin-4-yl-methanone]"
450 nM,6.1 nM,"COCCn1cc(Nc2ncc3ccn(-c4cc(F)c(C(=O)N5CCOCC5)c(F)c4)c3n2)cn1 [Example 251, (2,6-Difluoro-4-{2-[1-(2-methoxy-ethyl)-1H-pyrazol-4-ylamino]-pyrrolo[2,3-d]pyrimidin-7-yl}-phenyl)-morpholin-4-yl-methanone]"
340 nM,3.3 nM,"COCCn1cc(Nc2ncc3ccn(-c4cc(F)c(CN5CCOCC5)c(F)c4)c3n2)cn1 [Example 252, [7-(3,5-Difluoro-4-morpholin-4-ylmethyl-phenyl)-7H-pyrrolo[2,3-d]pyrimidin-2-yl]-[1-(2-methoxy-ethyl)-1H-pyrazol-4-yl]-amine]"
115 nM,6.9 nM,"C[C@@H]1CN(Cc2ccc(Nc3ncc4ccn(-c5cc(F)c(C(=O)N6CCOCC6)c(F)c5)c4n3)cc2)C[C@H](C)N1 [Example 255, (4-{2-[4-(cis-3,5-Dimethyl-piperazin-1-ylmethyl)-phenylamino]-pyrrolo[2,3-d]pyrimidin-7-yl}-2,6-difluoro-phenyl)-morpholin-4-yl-methanone]"
115 nM,< 3 nM,Fc1cc(-n2ccc3cnc(Nc4ccc(CN5CCNC6(CC6)C5)cc4)nc32)cc(F)c1CN1CCOCC1 [Example 256]
150 nM,10 nM,O=C(c1c(F)cc(-n2ccc3cnc(Nc4ccc(CN5CCNC6(CC6)C5)cc4)nc32)cc1F)N1CCOCC1 [Example 257]
80 nM,< 3 nM,"O=C1CN(Cc2ccc(Nc3ncc4ccn(-c5cc(F)c(CN6CCOCC6)c(F)c5)c4n3)cc2)CCN1 [Example 258, 4-{4-[7-(3,5-Difluoro-4-morpholin-4-ylmethyl-phenyl)-7H-pyrrolo[2,3-d]pyrimidin-2-ylamino]-benzyl}-piperazin-2-one]"
80 nM,< 3 nM,"O=C1CN(Cc2ccc(Nc3ncc4ccn(-c5cc(F)c(C(=O)N6CCOCC6)c(F)c5)c4n3)cc2)CCN1 [Example 259, 4-(4-{7-[3,5-Difluoro-4-(morpholine-4-carbonyl)-phenyl]-7H-pyrrolo[2,3-d]pyrimidin-2-ylamino}-benzyl)-piperazin-2-one]"
285 nM,4.2 nM,"O=C(c1c(F)cc(-n2ccc3cnc(Nc4ccc(N5CCNCC5)nc4)nc32)cc1F)N1CCOCC1 [Example 262, {2,6-Difluoro-4-[2-(6-piperazin-1-yl-pyridin-3-ylamino)-pyrrolo[2,3-d]pyrimidin-7-yl]-phenyl}-morpholin-4-yl-methanone]"
55 nM,< 3 nM,"Fc1cc(-n2ccc3cnc(Nc4ccc(N5CCNCC5)nc4)nc32)cc(F)c1CN1CCOCC1 [Example 263, [7-(3,5-Difluoro-4-morpholin-4-ylmethyl-phenyl)-7H-pyrrolo[2,3-d]pyrimidin-2-yl]-(6-piperazin-1-yl-pyridin-3-yl)-amine]"

# The next lines start with the compound.
SMILES,IC50 [1],IC50 (GST-JAK2(808-1132))
"COc1ccc(Nc2ncc3ccn(-c4ccc(C(=O)N5CCOCC5)c(F)c4)c3n2)cn1 [Example 225, {2-Fluoro-4-[2-(6-methoxy-pyridin-3-ylamino)-pyrrolo[2,3-d]pyrimidin-7-yl]-phenyl}-morpholin-4-yl-methanone]",434 nM,7.4 nM
"CC(C)Oc1ccc(Nc2ncc3ccn(-c4ccc(C(=O)N5CCOCC5)c(F)c4)c3n2)cn1 [Example 226, {2-Fluoro-4-[2-(6-isopropoxy-pyridin-3-ylamino)-pyrrolo[2,3-d]pyrimidin-7-yl]-phenyl}-morpholin-4-yl-methanone]",666 nM,10.5 nM
"Cc1ccc(Nc2ncc3ccn(-c4ccc(S(C)(=O)=O)cc4)c3n2)cn1 [Example 229, [7-(4-Methanesulfonyl-phenyl)-7H-pyrrolo[2,3-d]pyrimidin-2-yl]-(6-methyl-pyridin-3-yl)-amine]",1580 nM,21 nM
"COc1ccc(Nc2ncc3ccn(-c4ccc(S(C)(=O)=O)cc4)c3n2)cn1 [Example 230, [7-(4-Methanesulfonyl-phenyl)-7H-pyrrolo[2,3-d]pyrimidin-2-yl]-(6-methoxy-pyridin-3-yl)-amine]",2480 nM,20.5 nM
"CC(C)Oc1ccc(Nc2ncc3ccn(-c4ccc(C(=O)N5CCOCC5)cc4)c3n2)cc1 [Example 231, {4-[2-(4-Isopropoxy-phenylamino)-pyrrolo[2,3-d]pyrimidin-7-yl]-phenyl}-morpholin-4-yl-methanone]",258 nM,3.2 nM
CC(C)Oc1ccc(Nc2ncc3ccn(-c4ccc(C(=O)N5CCOCC5)cc4)c3n2)cn1 [Example 232],1160 nM,19 nM
"COc1ccc(Nc2ncc3ccn(-c4ccc(C(=O)N5CCOCC5)cc4)c3n2)cn1 [Example 234, {4-[2-(6-Methoxy-pyridin-3-ylamino)-pyrrolo[2,3-d]pyrimidin-7-yl]-phenyl}-morpholin-4-yl-methanone]",910 nM,8.1 nM
"N#Cc1ccc(Nc2ncc3ccn(-c4ccc(C(=O)N5CCOCC5)cc4)c3n2)cc1 [Example 237, 4-{7-[4-(Morpholine-4-carbonyl)-phenyl]-7H-pyrrolo[2,3-d]pyrimidin-2-ylamino}-benzonitrile]",2560 nM,7 nM
"COCc1ccc(Nc2ncc3ccn(-c4ccc(C(=O)N5CCOCC5)cc4)c3n2)cc1 [Example 239, {4-[2-(4-Methoxymethyl-phenylamino)-pyrrolo[2,3-d]pyrimidin-7-yl]-phenyl}-morpholin-4-yl-methanone]",660 nM,3.9 nM
"COc1cc(Nc2ncc3ccn(-c4ccc(C(=O)N5CCOCC5)cc4)c3n2)ccc1C [Example 240, {4-[2-(3-Methoxy-4-methyl-phenylamino)-pyrrolo[2,3-d]pyrimidin-7-yl]-phenyl}-morpholin-4-yl-methanone]",730 nM,5.2 nM
"O=C(c1c(F)cc(-n2ccc3cnc(Nc4nccs4)nc32)cc1F)N1CCOCC1 [Example 246, {2,6-Difluoro-4-[2-(thiazol-2-ylamino)-pyrrolo[2,3-d]pyrimidin-7-yl]-phenyl}-morpholin-4-yl-methanone]",4000 nM,28 nM
"Cc1ccc(Nc2ncc3ccn(-c4ccc(C(=O)N5CCS(=O)(=O)CC5)cc4)c3n2)cn1 [Example 249, (1,1-Dioxido-thiomorpholin-4-yl)-{4-[2-(6-methyl-pyridin-3-ylamino)-pyrrolo[2,3-d]pyrimidin-7-yl]-phenyl}-methanone]",815 nM,4.3 nM
"COc1ccc(Nc2ncc3ccn(-c4ccc(C(=O)N5CCS(=O)(=O)CC5)cc4)c3n2)cn1 [Example 250, (1,1-Dioxido-thiomorpholin-4-yl)-{4-[2-(6-methoxy-pyridin-3-ylamino)-pyrrolo[2,3-d]pyrimidin-7-yl]-phenyl}-methanone]",940 nM,9.1 nM
"Cn1cc(Nc2ncc3ccn(-c4ccc(C(=O)N5CCOCC5)cc4)c3n2)cn1 [Example 253, {4-[2-(1-Methyl-1H-pyrazol-4-ylamino)-pyrrolo[2,3-d]pyrimidin-7-yl]-phenyl}-morpholin-4-yl-methanone]",130 nM,7.1 nM
